Source: patent US4661471A, “Method of inhibiting and inducing human platelet aggregation” (New England Deaconess Hospital, priority 1984, dated 1987)
Ends that are not written are not given here.

How the values were obtained:
[1] = system: fibrinogen binding to Human platelets; assay: Inhibition of 125I-fibrinogen binding to ADP-treated human platelets; conditions: 10^8 platelets/0.5 ml treated with 5-10 micromoles of ADP; 125I-labelled fibrinogen; read-out: IC50 or 50% inhibition of fibrinogen binding
Description: The following experiment illustrates that the peptides of the invention can inhibit fibrinogen binding to platelets. Human platelets at a concentration of 10^8 cells/0.5 ml were treated with 5-10 micromoles of ADP. Various concentrations of the inhibitory peptides were mixed with the platelets and then […] ^125 I-labelled fibrinogen was added to the solution. The IC50 or 50% inhibition of fibrinogen binding was determined for each peptide by allowing the reaction to proceed to a conclusion, separating the platelets from unbound ^125 I-fibrinogen and determining the amount of labelled fibrinogen bound to the platelets. The less labelled fibrinogen bound to the platelets, the better the inhibition.

human platelets [2] = assay: Aggregation of ADP-treated platelets separated from plasma proteins by the synthetic peptide-albumin conjugate, in the absence of fibrinogen; format: cell-based; conditions: peptide added to the platelets prior to the conjugate
Description: Ten micromoles of ADP was added to 10^8 platelets which had been separated from the plasma proteins.

human platelets [3] = assay: Inhibition of ADP-induced fibrinogen (gamma chain multimer) cross-linked aggregation of platelets, light transmission; format: cell-based; parameters: dose or concentration left out as unconfirmed; conditions: 10^8 platelets treated with 5-10 micromoles of ADP; 7 micromoles of gamma chain fibrinogen multimers
Description: The sole figure of the drawing illustrates the inhibition of ADP-induced fibrinogen dependent platelet aggregation caused by incubation with various peptides of the invention.
A 60 µM concentration of a variety of synthetic peptides of the invention was added to 10^8 platelets which had been treated with 5-10 micromoles of ADP. At time zero, 7 micromoles of gamma chain fibrinogen multimers was added and the transmission of the solution was monitored for platelet aggregate formation. FIG. 1 illustrates the results of this experiment. […] While gamma chain multimers were used, similar results have been obtained with bivalent fibrinogen molecules.

IC50 [1] [µM]	Substance	inhibition of aggregation induced by the synthetic peptide-albumin conjugate (human platelets [2])	inhibition of the aggregation reaction (transmission) (human platelets [3])
28	Cys-Tyr-Gly-Gln-Gln-His-His-Leu-Gly-Gly-Ala-Lys-Gln-Ala-Gly-Asp-Val-COOH (CYGQQHHLGGAKQAGDV-OH) [heptadecapeptide]	–	–
28	HHLGGAKQAGDV [dodecapeptide]	the aggregation reaction is inhibited	almost complete inhibition
